Measured values from patent US11044911B2, “Phenoxyurea compound and pest control agent” (Nippon Soda Co., Ltd., priority 2018, dated 2021).

How the values were obtained:
[1] = system: drug-resistant strain of Panonychus citri collected in Wakayama Prefecture; test: Test Example 13: efficacy test against drug-resistant strain of Panonychus citri; format: in vivo; conditions: 10 days, corrected insecticidal rate
Description: (§1) 5 parts by weight of the compound of the present invention, 93.6 parts by weight of dimethylformamide and 1.4 parts by weight of polyoxyethylene alkylaryl ether were mixed and dissolved to prepare an emulsion (I) containing 5% of an active ingredient.
(§2) Insecticidal rate (%)=(number of dead insects/number of tested insects)×100
(§3) In addition, an efficacy test against a drug-resistant strain of Panonychus citri collected in Wakayama Prefecture was conducted in the following manner.
(§4) 8 adult females of a drug resistant strain of Panonychus citri were inoculated on mandarin orange leaves placed in a petri dish. Then, the emulsion (I) was diluted with water so that the concentration of the compound was 37.5 ppm or 9.4 ppm to obtain a chemical. This chemical was sprayed onto the mandarin orange leaves with a rotary spray tower. The mandarin orange leaves were placed in a thermostatic chamber at a temperature of 25° C. and a humidity of 65%. The life and death of the spider mite were investigated when 10 days had passed after the spraying, and the corrected insecticidal rate was calculated.

[2] = system: drug resistant strains of spider mites; test: Test Example 13: summary over all drug resistant strains of spider mites; format: in vivo, Tetranychus urticae, Panonychus citri; conditions: 9.4 ppm, all strains tested
Description: (§5) Efficacy tests against seven drug-resistant strains of Tetranychus urticae collected from various parts of Japan (one strain from Shizuoka Prefecture, Aomori Prefecture and Fukuoka Prefecture, and two strains from Chiba Prefecture and Nagano Prefecture) were conducted in the following manner.
as §4, with “drug-resistant strains” for “a drug resistant strain”, “spider mites” for “Panonychus citri”, “kidney bean plant” for “mandarin orange”, “the” for “the corrected”
as §3
8 adult females of a drug resistant strain of Panonychus citri were inoculated on mandarin orange leaves placed in a petri dish. […] The life and death of the spider mite were investigated when 10 days had passed after the spraying, and the corrected insecticidal rate was calculated.

eggplants = test: Test Example 14: phytotoxicity test on eggplants; format: in vivo, eggplant; conditions: 300 ppm spray; for Eggplant; 6- to 7-leaf stage After 14 days Leaf Phytotoxicity index: index 0 (no phytotoxicity) to 10 (plant death)
Description: (§6) A sufficient amount of chemical having a compound concentration of 300 ppm was sprayed onto eggplants at the 6- to 7-leaf stage using a glass nozzle, and they were left to stand in a greenhouse. The presence or absence of phytotoxicity was investigated after being left to stand for 14 days.
(§7) The symptoms of phytotoxicity were deformation and discoloration of leaves.

[3] = system: drug-resistant strains of Tetranychus urticae; test: Test Example 13: efficacy test against drug-resistant strains of Tetranychus urticae; format: in vivo; conditions: 10 days
Description: as §1, §2, §5
as §4, with “drug-resistant strains” for “a drug resistant strain”, “spider mites” for “Panonychus citri”, “kidney bean plant” for “mandarin orange”, “the” for “the corrected”

cucumber plants = test: Test Example 14: phytotoxicity test on cucumber plants; format: in vivo; conditions: 300 ppm spray; for Cucumber; 1.5-leaf stage After 14 days Leaf Phytotoxicity index: index 0 (no phytotoxicity) to 10 (plant death)
Description: as §6, with “A test for phytotoxicity on cucumber plants was conducted as follows. A” for “A”, “cucumber plants” for “eggplants”, “1.5-leaf” for “6- to 7-leaf”
as §7

Tetranychus urticae = test: Test Example 10: efficacy test against Tetranychus urticae (soil irrigation test); format: in vivo; conditions: 25 ml of 400 ppm, strawberry seedling, 19 days after inoculation
Description: as §1
The emulsion (I) was diluted with tap water to prepare a drug solution having a concentration of 400 ppm. A plastic potted strawberry seedling was subjected to a plant foot irrigation treatment with 25 ml of the drug solution, and placed in a thermostatic chamber at a temperature of 25° C. and a humidity of 60%. Three days after the irrigation treatment, 15 adult females of Tetranychus urticae were inoculated on each seedling. The number of surviving insects 19 days after inoculation was investigated, and the control value was obtained by the following formula. The test was repeated twice. Control value (%)=100−{(Nt)/(Nc)×100}
The letters in the formula represent the following.
Nc: Number of surviving insects in the untreated group
Nt: Number of surviving insects in the treated group

Structure (SMILES) | insecticidal rate, Low-susceptible Panonychus citri from Wakayama Prefecture ([1]; 9.4 ppm) [%] | insecticidal rate, Low-susceptible Panonychus citri from Wakayama Prefecture ([1]; 37.5 ppm) [%] | Eggplant; 6- to 7-leaf stage After 14 days Leaf Phytotoxicity index (eggplants; Repetition A) | Eggplant; 6- to 7-leaf stage After 14 days Leaf Phytotoxicity index (eggplants; Repetition B) | insecticidal rate, Low-susceptible Tetranychus urticae 1 from Nagano Prefecture ([3]; 9.4 ppm) [%] | insecticidal rate, Low-susceptible Tetranychus urticae 2 from Chiba Prefecture ([3]; 9.4 ppm) [%] | insecticidal rate, Low-susceptible Tetranychus urticae 2 from Nagano Prefecture ([3]; 9.4 ppm) [%] | insecticidal rate, Low-susceptible Tetranychus urticae from Aomori Prefecture ([3]; 9.4 ppm) [%] | insecticidal rate, Low-susceptible Tetranychus urticae from Fukuoka Prefecture ([3]; 9.4 ppm) [%] | insecticidal rate, Low-susceptible Tetranyclus urticae 1 from Chiba Prefecture ([3]; 9.4 ppm) [%] | insecticidal rate, Low-susceptible Tetranychus urticae 1 from Nagano Prefecture ([3]; 37.5 ppm) [%] | insecticidal rate, Low-susceptible Tetranychus urticae 2 from Chiba Prefecture ([3]; 37.5 ppm) [%] | insecticidal rate, Low-susceptible Tetranychus urticae 2 from Nagano Prefecture ([3]; 37.5 ppm) [%] | insecticidal rate, Low-susceptible Tetranychus urticae from Aomori Prefecture ([3]; 37.5 ppm) [%] | insecticidal rate, Low-susceptible Tetranychus urticae from Fukuoka Prefecture ([3]; 37.5 ppm) [%] | insecticidal rate, Low-susceptible Tetranyclus urticae 1 from Chiba Prefecture ([3]; 37.5 ppm) [%] | Cucumber; 1.5-leaf stage After 14 days Leaf Phytotoxicity index (cucumber plants; Repetition A) | Cucumber; 1.5-leaf stage After 14 days Leaf Phytotoxicity index (cucumber plants; Repetition B) | other results
CCN(Oc1cc(Br)cc(C(F)(F)F)c1)C(=O)NC(C)(C)C(=O)NCC(F)(F)F [Compound 1-1, 2-{3-[3-Bromo-5-(trifluoromethyl)phenoxy]-3-ethylureido}-2-methyl-N-(2,2,2-trifluoroethyl)propanamide] | 99 | 100 | 0 | 0 | 100 | 97 | 99 | 93 | 96 | 100 | 100 | 100 | 100 | 100 | 99 | 100 | 0 | 0 | efficacy against all drug resistant strains of spider mites [2]: ≥ 90; phytotoxicity on eggplants (eggplants; 14 days): no phytotoxicity; insecticidal rate, Low-susceptible Tetranychus urticae from Shizuoka Prefecture ([3]; 9.4 ppm): 96%; insecticidal rate, Low-susceptible Tetranychus urticae from Shizuoka Prefecture ([3]; 37.5 ppm): 100%; phytotoxicity on cucumber plants (cucumber plants; 14 days): no phytotoxicity; control value against Tetranychus urticae (Tetranychus urticae): ≥ 90%
CCN(Oc1cc(Cl)cc(Br)c1)C(=O)NC(C)(C)C(=O)NCC(F)(F)F [Compound (D)] |  |  | 3 | 3 | 73 | 72 | 45 |  |  | 32 | 99 | 87 | 96 |  |  | 77 | 5 | 7 | 
CCN(Oc1cc(Br)nc(Br)c1)C(=O)NC(C)(C)C(=O)NCC(F)(F)F [Compound (G)] | 60 | 95 | 2 | 2 | 78 | 58 | 70 | 66 |  | 53 | 96 | 91 | 88 | 97 |  | 98 | 2 | 2 | 
CCN(Oc1ccnc(C(F)(F)F)c1)C(=O)NC(C)(C)C(=O)NCC(F)(F)F [Compound (H)] | 78 | 96 | 2 | 2 |  |  |  |  | 45 |  |  |  |  |  | 96 |  |  |  | 
